Measured values as given in patent publication US20240327423A1, “A SERIES OF PYRROLE DERIVATIVES AND THEIR PREPARATION METHOD AND THERAPEUTIC USE” (SHENZHEN SUNGENING BIO-MEDICAL CO., LTD, priority 2020, published 2024).
In brackets after ≈: the same amount, converted by molar mass.

Experiments:
[1] = tested on: Aspergillus fumigatus (ATCC MYA-4609/AF293/CBS 101355); test: Measurement of minimum inhibitory concentration (MIC), AF293; type: cell-based; conditions: CBS101355; Aspergillus fumigatus AF293, 35° C., 48 hours, RPMI1640; read-out: AF293: MIC
Procedure: (§1) New streaks are made with glycerol stock solution of the strains of Aspergillus fumigatus (ATCC MYA-4609/AF 293/CBS 101355) on Sabouraud's dextrose agar (SDA), incubate at 35° C. and a humidity of 40-70% for 72 hours. Other strains are processed as the same as AF293.
(§2) RPMI1640: one packet of RPMI1640 powder is dissolved in 1 L purified water and mixed well, add 0.165M MOPS, adjust the pH to 7.0, sterilize by filtration with 0.22 um membrane, and store at 4° C. for no more than 3 months.
(§3) Physiological saline: weigh 9 g of sodium chloride powder and dissolve in 1 L of purified water, and mixed well. Sterilize at 121° C. for 30 min, store at room temperature (RT) for no more than 1 week.
(§4) Dissolve the test compound and stock solution of one control compound with DMSO and obtain solutions at a concentration of 12.8 mg/mL
(§5) The maximum concentration of each compound is 0.8 mg/mL (e.g., 150 μL of dimethyl sulfoxide+10 uL of 12.8 mg/mL compound/control). Column 1 is filled with 40 μL of compound and columns 2 to 11 with 20 μL of dimethyl sulfoxide. Transfer 20 μL of compound from column 1 to column 2 to dilute the concentration. Repeat the above steps up to column 11 to give 2× serial dilutions.
(§6) 2 μL of the above 2× serial dilutions are injected into each hole of the corresponding test plate using a multichannel pipette.
(§7) Drop 5 ml of saline on the Aspergillus fumigatus SDA plate. The spores were carefully wiped off from the surface of the plate with an L-shaped coating rod. Then the suspension is transferred into a sterile tube. After shaking, let the tube stand for 5 to 10 minutes. Count the number of spores in the upper suspension with a hemocytometer and check the purity. Adjust the inoculum concentration to 0.2-2.5×10^4 spores/mL.
(§8) Inject 198 μL of diluted inoculum into each holes of the corresponding test plate using a multichannel pipette.
(§9) Incubate at 35° C. for 48 hours.
(§10) To facilitate scoring of the presence or absence of growth on the wall, a magnifying glass is used. The tested 96-well microplates were photographed and the optical density at 530 nm is read with an enzyme marker (Tecan Spark).

[2] = tested on: Aspergillus flavus (ATCC MYA-1004); test: Measurement of minimum inhibitory concentration (MIC), ATCC MYA-1004; type: cell-based; conditions: Aspergillus flavus ATCC MYA-1004, 35° C., 48 hours
Procedure: as §1, §2, §3, §4, §5, §6, §7, §8, §9, §10

[3] = tested on: Aspergillus flavus (ATCC 204304); test: Measurement of minimum inhibitory concentration (MIC), ATCC 204304; type: cell-based; conditions: ATCC204304; Aspergillus flavus ATCC 204304, 35° C., 48 hours
Procedure: as §1, §2, §3, §4, §5, §6, §7, §8, §9, §10

[4] = Pharmacokinetic test in SD rats, single oral administration; type: in vivo; conditions: SD, rat, plasma, po, 10 mg/kg, single oral administration 10 mg/kg, test compound mixed with F901318, plasma
Procedure: Pharmacokinetic study is performed on SD rats receiving single oral administration of each test compound mixed with F901318 (10 mg/kg, 3 rats per group). Test compounds and F901318 are dissolved with […]+10% solutol+85% saline, vortexed for 1-2 mins and ultra-sonicated for 5-10 mins to form a colorless clear drug solution. The animals are fasted overnight before oral administration, and resumed feeding 4 hours after administration. After oral administration, pharmacokinetic samples are collected from orbital blood of SD rats at 0.083 h, 0.25 h, 0.5 h, 1 h, 2 h, 4 h, 6 h, 8 h, and 24 h, and three whole blood samples are collected at each time point in a volume of 0.2-0.3 mL. Blood samples are placed on ice immediately after collected, and the plasma is separated by centrifugation within 15 min (centrifugation conditions: 8000 rpm, 1 min, and at room temperature).
The collected plasma is stored at −20° C. prior to analysis. Transfer 20 μL of plasma sample into an 0.5 mL EP tube, add 200 μL of working internal standard solution (blank group is without internal standard, using the same volume of solvent instead), vortex and mix for 3 min centrifuge at 13500 rpm for 10 min, take 100 μL of supernatant and analyze with LC-MS/MS.

[5] = tested on: Aspergillus fumigatus (ATCC-204305); test: Measurement of minimum inhibitory concentration (MIC), ATCC 204305; type: cell-based; conditions: ATCC204305; Aspergillus fumigatus ATCC 204305, 35° C., 48 hours
Procedure: New streaks are made with glycerol stock solution of the strains of Aspergillus [NT] MYA-4609/AF 293/CBS 101355) on Sabouraud's dextrose agar (SDA), incubate at 35° C. and a humidity of 40-70% for 72 hours. Other strains are processed as the same as AF293. RPMI1640: one packet of RPMI1640 powder is dissolved in 1 L purified water and mixed well, add 0.165M MOPS, adjust the pH to 7.0, sterilize by filtration with 0.22 um membrane, and store at 4° C. for no more than 3 months. Physiological saline: weigh 9 g of sodium chloride powder and dissolve in 1 L of purified water, and mixed well. […] Dissolve the test compound and stock solution of one control compound with DMSO and obtain solutions at a concentration of 12.8 mg/mL The maximum concentration of each compound is 0.8 mg/mL (e.g., 150 μL of dimethyl sulfoxide+10 uL of 12.8 mg/mL compound/control). […] Repeat the above steps up to column 11 to give 2× serial dilutions. 2 μL of the above 2× serial dilutions are injected into each hole of the corresponding test plate using a multichannel pipette. Drop 5 ml of saline on the Aspergillus fumigatus SDA plate. The spores were carefully wiped off from the surface of the plate with an L-shaped coating rod. Then the suspension is transferred into a sterile tube. After shaking, let the tube stand for 5 to 10 minutes. Count the number of spores in the upper suspension with a hemocytometer and check the purity. Adjust the inoculum concentration to 0.2-2.5×10^4 spores/mL. Inject 198 μL of diluted inoculum into each holes of the corresponding test plate using a multichannel pipette. Incubate at 35° C. for 48 hours. […] To facilitate scoring of the presence or absence of growth on the wall, a magnifying glass is used. The tested 96-well microplates were photographed and the optical density at 530 nm is read with an enzyme marker (Tecan Spark).

[6] = Liver microsomal stability test, mouse; type: in vitro ADME; conditions: Mouse liver microsomes; for CLint scaled / half-life: 0.5 mg/mL protein, 37° C., NADPH
Procedure: (§11) • 1: Add 10 μL of working solutions of test product or reference product and 80 μL of microsomal working solution (liver microsomal protein concentration of 0.5 mg/mL) to wells of TO, T5, T10, T20, T30, T60, and NCF60, and only microsomal working solution is added to the Blank60 wells. Then the samples of Blank60, T10, T20, T30 and T60, except for TO and NCF60, are placed in a water bath set at 37° C. and incubate for approximately 10 mins; • 2: Add 300 μL of termination solution (acetonitrile solution containing 200 ng/mL tolbutamide and 200 ng/mL labetalol) to Sample TO, followed by 10 ul of NADPH regeneration system working solution; • 3: After incubation of Blank60, T5, T10, T20, T30 and T60 on incubation plates, add 10 μL of NADPH regeneration system working solution to each sample well to start the reaction, and 10 uL of 100 mM potassium phosphate buffer is add to the NCF60 sample wells; • 4: After incubation for appropriate times (e.g., 5, 10, 20, 30 and 60 mins), 300 μL of termination solution is add to each sample well of test product and reference product on Blank60, T5, T10, T20, T30, T60 and NCF60 plates, respectively, to terminate the reaction. • 5: All sample plates are shaken well and centrifuged at 4000 rpm for 20 min, take 100 μL of the supernatant of the test product or reference product, dilute in 300 μL of pure water for LC-MS/MS analysis, respectively. • 6: Data analysis, T½ and CLint(mic) (μL/min/mg) values are calculated based on the first-order elimination kinetics, and the equations of first-order elimination kinetics are: […]

[7] = Liver microsomal stability test, human; type: in vitro ADME; conditions: Human liver microsomes; for CLint scaled / half-life: 0.5 mg/mL protein, 37° C., NADPH
Procedure: as §11

Cc1cc(-c2ccccc2)c(C(=O)C(=O)Nc2ccc3c(c2)OCC2CN(c4ncc(F)cn4)CCN32)n1C (stereo not shown) [Example 3, 2-(1,5-dimethyl-3-phenyl-1H-pyrrol-2-yl)-N-(3-(5-fluoropyrimidin-2-yl)-1,2,3,4,4a,5-hexahydrobenzo[b]pyrazino[1,2-d][1,4]oxazin-8-yl)-2-oxoacetamide]
MIC [1]: 0.125 µg/mL (≈ 0.237 µM) | MIC [2]: 0.008 µg/mL (≈ 0.0152 µM) | MIC [3]: 0.008 µg/mL (≈ 0.0152 µM) | AUC ([4]; read-out: AUC): 18700 ng·h/mL | Cmax ([4]; read-out: Cmax): 1420 ng/mL | Tmax ([4]; read-out: Tmax): 55 min | half-life ([4]; read-out: T½ (converted)): 321 min | MIC [5]: 0.016 µg/mL (≈ 0.0304 µM)

Cc1cc(-c2ccccc2)c(C(=O)C(=O)Nc2ccc3c(c2)C[C@@H]2CN(c4ncc(F)cn4)CCN32)n1C [Example 34, (R)-2-(1,5-dimethyl-3-phenyl-1H-pyrrol-2-yl)-N-(2-(5-fluoropyrimidin-2-yl)-1,2,3,4,10,10a-hexahydropyrazino [1,2-a]indol-8-yl)-2-oxoacetamide]
MIC [1]: 0.016 µg/mL (≈ 0.0313 µM) | MIC [2]: 0.008 µg/mL (≈ 0.0157 µM) | MIC [3]: 0.016 µg/mL (≈ 0.0313 µM) | CLint scaled [6]: 45.9 mL/min/kg | half-life [6]: 54.4 min | Remaining, (T = 60 min) [6]: 48.5% | MIC [5]: 0.03 µg/mL (≈ 0.0588 µM) | CLint scaled [7]: 31.3 mL/min/kg | half-life [7]: 39.9 min | Remaining, (T = 60 min) [7]: 34.5%

Cc1cc(-c2ccccc2)c(C(=O)C(=O)Nc2cc(F)c3c(c2)OCC2CN(c4ncc(F)cn4)CCN32)n1C (stereo not shown) [Example 4]
MIC [1]: 0.03 µg/mL (≈ 0.0551 µM) | MIC [2]: 0.008 µg/mL (≈ 0.0147 µM) | MIC [3]: 0.016 µg/mL (≈ 0.0294 µM) | CLint scaled [6]: 114 mL/min/kg | half-life [6]: 21.8 min | Remaining, (T = 60 min) [6]: 14.3% | MIC [5]: 0.016 µg/mL (≈ 0.0294 µM) | CLint scaled [7]: 66.4 mL/min/kg | half-life [7]: 18.8 min | Remaining, (T = 60 min) [7]: 10.5%
